Measurements reported in patent publication US7989451B2, “Tricyclic 1,2,4-triazine oxides and compositions for therapeutic use in cancer treatments” (Auckland Uniservices Limited, priority 2005, dated 2011).
Where two headings read alike, the source gives them in different places.

Legend:
[1] = tested on: human colon carcinoma HT29; experiment: Proliferation assay (IC50) under aerobic and hypoxic conditions, HT29; type: cell-based; conditions: for IC50: 4 h drug exposure, sulforhodamine B; for HCR: hypoxic cytotoxicity ratio = IC50 aerobic/IC50 hypoxic
Description: (§1) Compounds representative of the invention were evaluated under both aerobic and hypoxic conditions in a proliferation assay (IC50), using two cell lines: human colon carcinoma HT29, and human cervical carcinoma SiHa (Table 1).
(§2) Drug exposures were performed in 96-well plates (Nunc) either using a 37 DC humidified incubator (20% O2, 5% CO2) or in the incubator compartment (37° C.) of an anaerobic chamber (Shell Lab) where palladium catalyst scrubbed gas (90% N2, 5% H2, 5% CO2) ensures severe anoxia (<0.001% O2). For each experiment, compounds were simultaneously tested under both oxic and hypoxic conditions and included TPZ as an internal control. An 8-methyl-5-nitroquinoline derivative, SN 24349, known to require very low oxygen concentrations for bioactivation (Siim et al., Br. J. Cancer 1994, 70, 596-603) was used to confirm that strict hypoxia was present during the experiment. […] Cell cultures were grown in αMEM (Gibco) containing 5% heat inactivated FCS and maintained in exponential growth phase. For each individual experiment an appropriate number of cells were seeded (HT29=1100; SiHa=1500) into wells in αMEM+10% FCS+10 mM added glucose+100 μM 2′-deoxycytidine (2′dCyd), and allowed to attach for 2-3 h. High glucose (final concentration 17 mM) and the presence of 2′-dCyd minimize hypoxia-induced cell cycle arrest. Cultures were then exposed to drugs, using 3-fold serial dilutions in duplicate, for a further 4 h. Subsequently cells were washed free of compound using complete media (without glucose/2′-dCyd) and allowed to grow for 5 (oxic) or 6 (anoxic) days. Plates were stained with sulforhodamine B as described previously (Wilson et al., J. Med. Chem. 1989, 32, 31-38) and IC50 values determined.
(§3) HCR=Hypoxic cytotoxicity ratio is defined as the ratio of IC50 values under aerobic and hypoxic conditions (IC50 aerobic/IC50 hypoxic).

[2] = tested on: human cervical carcinoma SiHa; experiment: Proliferation assay (IC50) under aerobic and hypoxic conditions, SiHa; type: cell-based; conditions: for IC50: 4 h drug exposure, sulforhodamine B; for HCR: hypoxic cytotoxicity ratio = IC50 aerobic/IC50 hypoxic
Description: as §1, §2, §3

[3] = Homo sapiens, HT-29, hypoxic (anaerobic chamber, <0.001% O2), then 6 days growth, read-out: IC50 (μM) hypoxic
[4] = Homo sapiens, HT-29, oxic (20% O2), then 5 days growth, read-out: IC50 (μM) oxic
[5] = Homo sapiens, hypoxic (anaerobic chamber, <0.001% O2), then 6 days growth, read-out: IC50 (μM) hypoxic
[6] = Homo sapiens, oxic (20% O2), then 5 days growth, read-out: IC50 (μM) oxic
[7] = hypoxic (anaerobic chamber, <0.001% O2), then 6 days growth, read-out: IC50 (μM) hypoxic
[8] = oxic (20% O2), then 5 days growth, read-out: IC50 (μM) oxic

Structure (SMILES) | IC50 [1, 3] | IC50 [1, 4] | HCR [1] | IC50 [2, 5] | IC50 [2, 6] | HCR [2] | melting point | IC50 [1, 7] | IC50 [1, 8] | IC50 [2, 7] | IC50 [2, 8]
[O-][n+]1nc(CCCN2CCCCC2)[n+]([O-])c2cc3c(cc21)CCC3 [Compound 87, 3-[3-(1-Piperidinyl)propyl]-7,8-dihydro-6H-indeno[5,6-e][1,2,4]triazine 1,4-Dioxide] | 0.37 ± 0.05 µM | 202 ± 72 µM | 598 ± 233 | 0.26 ± 0.08 µM | 219 ± 96 µM | 1000 ± 431 | – | – | – | – | –
N#CC1CCN(CCCNc2n[n+]([O-])c3cc4c(cc3[n+]2[O-])CCC4)C1 (stereo not shown) [Compound 57, 1-{3-[(1,4-Dioxido-7,8-dihydro-6H-indeno[5,6-e][1,2,4]triazin-3-yl)amino]propyl}-3-pyrrolidinecarbonitrile] | 22 ± 1 µM | 87 ± 3 µM | 4 ± 0.1 | 10.4 ± 0.6 µM | 231 ± 64 µM | 22 ± 6 | – | – | – | – | –
[O-][n+]1nc(NCCN2CCCCC2)nc2ccc3c(c21)CCC3 [Compound 12, N-[2-(1-Piperidinyl)ethyl]-8,9-dihydro-7H-indeno[5,4-e][1,2,4]triazin-3-amine 1-Oxide] | – | – | – | – | – | – | 152 to 155 °C | – | – | – | –
[O-][n+]1nc(NCCCN2CCOCC2)nc2cc3c(cc21)CCCC3 [Compound 179, N-[3-(4-Morpholinyl)propyl]-6,7,8,9-tetrahydronaphtho[2,3-e][1,2,4]triazin-3-amine 1-Oxide] | – | – | – | – | – | – | 115 to 116 °C | – | – | – | –
CN1CCc2cc3c(cc2C1)nc(N)n[n+]3[O-] [Compound 256, 7-Methyl-6,7,8,9-tetrahydro[1,2,4]triazino[6,5-g]isoquinolin-3-amine 1-Oxide] | – | – | – | – | – | – | 170 to 175 °C | – | – | – | –
CN1CCc2ccc3nc(Cl)n[n+]([O-])c3c2C1 [Compound 263, 3-Chloro-9-methyl-7,8,9,10-tetrahydro[1,2,4]triazino[5,6-h]isoquinoline 1 Oxide] | – | – | – | – | – | – | 200 to 205 °C | – | – | – | –
COCCN(C)CCCNc1nc2cc3c(cc2[n+]([O-])n1)CCC3 [Compound 52, N^1-(2-Methoxyethyl)-N^1-methyl-N^3-(1-oxido-7,8-dihydro-6H-indeno[5,6-e][1,2,4]triazin-3-yl)-1,3-propanediamine] | – | – | – | – | – | – | 59 to 61 °C | – | – | – | –
CCN1Cc2cc3c(cc2C1)[n+]([O-])c(N)n[n+]3[O-] [Compound 250, 7-Ethyl-7,8-dihydro-6H-[1,2,4]triazino[5,6-f]isoindol-3-amine 1,4-Dioxide] | 1.5 µM | 6.2 µM | – | 0.85 µM | 36 ± 32 µM | 80 | – | – | – | – | –
Nc1nc2cc3c(cc2[n+]([O-])n1)CCC3 [Compound 19, 7,8-Dihydro-6H-indeno[5,6-e][1,2,4]triazin-3-amine 1-Oxide] | – | – | – | – | – | – | 270 to 272 °C | – | – | – | –
CCCN(CCC)CCNc1nc2ccc3c(c2[n+]([O-])n1)CCC3 [Compound 10, N^1-(1-Oxido-8,9-dihydro-7H-indeno[5,4-e][1,2,4]triazin-3-yl)-N^2,N^2-dipropyl-1,2-ethanediamine] | – | – | – | – | – | – | 148 to 151 °C | – | – | – | –
Nc1nc2cc3c(cc2[n+]([O-])n1)CCCC3 [Compound 175, 6,7,8,9-Tetrahydronaphtho[2,3-e][1,2,4]triazin-3-amine 1-Oxide] | – | – | – | – | – | – | 270 to 274 °C | – | – | – | –
[O-][n+]1nc(NCCN2CCCOCC2)[n+]([O-])c2cc3c(cc21)CCC3 [Compound 49, N-[2-(1,4-Oxazepan-4-yl)ethyl]-7,8-dihydro-6H-indeno[5,6-e][1,2,4]triazin-3-amine 1,4-Dioxide] | 7.1 ± 0.6 µM | 399 ± 148 µM | 58 ± 26 | 2.8 ± 1.2 µM | 217 ± 52 µM | 86 ± 18 | – | – | – | – | –
[O-][n+]1nc(NCCCN2CCOCC2)[n+]([O-])c2cc3c(cc21)CCCC3 [Compound 180, N-[3-(4-Morpholinyl)propyl]-6,7,8,9-tetrahydronaphtho[2,3-e][1,2,4]triazin-3-amine 1,4-Dioxide] | 6.3 ± 0.8 µM | 158 ± 19 µM | 25 ± 3 | 2.6 ± 0.5 µM | 127 ± 14 µM | 54 ± 16 | – | – | – | – | –
[O-][n+]1nc(NCCCN2CCOCC2)[n+]([O-])c2cc3c(cc21)OCCC3 [Compound 244, N-[3-(4-Morpholinyl)propyl]-7,8-dihydro-6H-chromeno[6,7-e][1,2,4]triazin-3-amine 1,4-Dioxide] | 11 ± 3 µM | 188 ± 51 µM | 19 ± 5 | 3.6 ± 0.5 µM | 145 ± 29 µM | 41 ± 10 | – | – | – | – | –
CN(C)CCCc1n[n+]([O-])c2cc3c(cc2[n+]1[O-])CCC3 [Compound 79, N-[3-(1,4-Dioxido-7,8-dihydro-6H-indeno[5,6-e][1,2,4]triazin-3-yl)propyl]-N,N-dimethylamine] | 0.54 ± 0.07 µM | 195 ± 99 µM | 386 ± 213 | 0.32 ± 0.09 µM | 194 ± 120 µM | 738 ± 523 | – | – | – | – | –
[O-][n+]1nc(NCCCN2CCOCC2)[n+]([O-])c2ccc3c(c21)CCC3 [Compound 15, N-[3-(1-Morpholinyl)propyl]-8,9-dihydro-7H-indeno[5,4-e][1,2,4]triazin-3-amine 1,4-Dioxide] | – | – | 24 | – | – | 33 | – | 37.6 µM | 902 µM | 13.9 µM | 460 µM
CCN(CC)CCNc1n[n+]([O-])c2cc3c(cc2[n+]1[O-])CCC3 [Compound 27, N^1-(1,4-Dioxido-7,8-dihydro-6H-indeno[5,6-e][1,2,4]triazin-3-yl)-N^2,N^2-diethyl-1,2-ethanediamine] | 4.2 µM | 254 µM | 61 | 1.1 µM | 143 µM | 133 | – | – | – | – | –
CCc1n[n+]([O-])c2cc3c(cc2[n+]1[O-])CC(CCN1CCOCC1)C3 (stereo not shown) [Compound 164, 3-Ethyl-7-[2-(4-morpholinyl)ethyl]-7,8-dihydro-6H-indeno[5,6-e][1,2,4]triazine 1,4-Dioxide] | 3.6 ± 1.1 µM | 121 ± 21 µM | 36 ± 5 | 1.3 µM | 95 ± 12 µM | 84 | – | – | – | – | –
[O-][n+]1nc(NCCN2CCOCC2)[n+]([O-])c2cc3c(cc21)CCC3 [Compound 45, N-[2-(4-Morpholinyl)ethyl]-7,8-dihydro-6H-indeno[5,6-e][1,2,4]triazin-3-amine 1,4-Dioxide] | 19 ± 2 µM | 310 ± 109 µM | 17 ± 6 | 9.9 ± 1.4 µM | 245 ± 60 µM | 28 ± 11 | – | – | – | – | –
CN(C)CCNc1n[n+]([O-])c2c3c(ccc2[n+]1[O-])CCCC3 [Compound 173, N^1-(1,4-Dioxido-7,8,9,10-tetrahydronaphtho[2,1-e][1,2,4]triazin-3-yl)-N^2,N^2-dimethyl-1,2-ethanediamine] | 3.4 µM | 60.5 µM | 18 | 1 µM | 62 µM | 64 | – | – | – | – | –
[O-][n+]1nc(CCCN2CCCC2)[n+]([O-])c2cc3c(cc21)CCC3 [Compound 85, 3-[3-(1-Pyrrolidinyl)propyl]-7,8-dihydro-6H-indeno[5,6-e][1,2,4]triazine 1,4-Dioxide] | 0.63 ± 0.05 µM | 161 ± 48 µM | 249 ± 55 | 0.35 ± 0.01 µM | 133 ± 42 µM | 385 ± 125 | – | – | – | – | –
CN(C)CCNc1n[n+]([O-])c2c3c(ccc2[n+]1[O-])OCCC3 [Compound 237, N^1-(1,4-Dioxido-9,10-dihydro-8H-chromeno[6,5-e][1,2,4]triazin-3-yl)-N^2,N^2-dimethyl-1,2-ethanediamine] | 4.1 µM | 59.1 µM | 14 | 0.67 µM | 43.8 µM | 66 | – | – | – | – | –
COC1CCCN(CCNc2n[n+]([O-])c3cc4c(cc3[n+]2[O-])CCC4)C1 (stereo not shown) [Compound 41, N-[2-(3-Methoxy-1-piperidinyl)ethyl]-7,8-dihydro-6H-indeno[5,6-e][1,2,4]triazin-3-amine 1,4-Dioxide] | 93 ± 11 µM | 1390 ± 349 µM | 19 ± 0.3 | 46 ± 11 µM | 1750 ± 148 µM | 46 ± 17 | – | – | – | – | –
COC1CN(CCCc2n[n+]([O-])c3cc4c(cc3[n+]2[O-])CCC4)C1 [Compound 83, 3-[3-(3-Methoxy-1-azetidinyl)propyl]-7,8-dihydro-6H-indeno[5,6-e][1,2,4]triazine 1,4-Dioxide] | 1.3 ± 0.2 µM | 262 ± 83 µM | 249 ± 129 | 0.58 ± 0.19 µM | 300 ± 162 µM | 640 ± 411 | – | – | – | – | –
